# Values of other authors as cited in patent US9006270B2, “Polymorphs of (S)-pyrrolidine-1,2-dicarboxylic acid 2-amide 1-({4-methyl-5-[2-(2,2,2-trifluoro-1,1-dimethyl-ethyl)-pyridin-4-yl]-thiazol-2-yl}-amide” (Novartis AG, priority 2011, dated 2015).
# System: phosphatidylinositol 3-kinase (PI3K)
# Settings: described in WO 2010/029082
structure (smiles),measurement,value
"Cc1nc(NC(=O)N2CCC[C@H]2C(N)=O)sc1-c1ccnc(C(C)(C)C(F)(F)F)c1 [Compound I, (S)-pyrrolidine-1,2-dicarboxylic acid 2-amide 1-(4-methyl-5-[2-(2,2,2-trifluoro-1,1-dimethyl-ethyl)-pyridin-4-yl]-thiazol-2-yl)-amide]",activity against the phosphatidylinositol 3-kinase (PI3K),demonstrated activity
